In the supplement of paper PMC13207355:

Legend:
Conditions in all cases: exposure time: 72 h
E57 [1] = patient-derived glioblastoma stem cells of mesenchymal subtype; experiment: phenotypic distance (Euclidean, principal components) from DMSO controls (arbitrary units); higher = stronger morphological change
E31 [2] = patient-derived glioblastoma stem cells of proneural subtype; experiment: as above
E34 [3] = patient-derived glioblastoma stem cells of proneural subtype; experiment: as above
E13 [4] = patient-derived glioblastoma stem cells of classical subtype; experiment: as above
E21 [5] = patient-derived glioblastoma stem cells of mesenchymal subtype; experiment: as above
FT3469 [6] = normal neural stem cell line; experiment: as above
E28 [7] = patient-derived glioblastoma stem cells of classical subtype; experiment: as above
E57 [8] = experiment: surviving fraction (nuclei count normalised to DMSO); higher = more cells surviving (less toxic)
E31 [9] = experiment: as above
E34 [10] = experiment: as above
E13 [11] = experiment: as above
E21 [12] = experiment: as above
FT3469 [13] = experiment: as above
E28 [14] = experiment: as above
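Wherever phenotypic distance (Euclidean, principal components) from DMSO controls is given: cell Painting imaging in 384-well plates, CellProfiler features reduced to at least 20 principal components, Euclidean distance versus same-plate DMSO vehicle wells (0.1% v/v), median over six images per well.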
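Wherever surviving fraction (nuclei count normalised to DMSO) is given: nuclei counted by high-content imaging of Hoechst-stained cells in laminin-coated 384-well plates, relative to 0.1% DMSO vehicle wells, with staurosporine as cell-death control.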

COC(=O)Nc1nc2cc(C(=O)c3ccccc3)ccc2[nH]1 [Mebendazole]
Conditions | phenotypic distance | surviving fraction
E13 [4], 4.1 nM | 1.43 | –
E13 [4], 12.3 nM | 1.24 | –
E13 [4], 37 nM | 2.04 | –
E13 [4], 111.1 nM | 4.4 | –
E13 [4], 333.3 nM | 7.15 | –
E13 [4], 1000 nM | 6.93 | –
E13 [4], 3000 nM | 7.2 | –
E13 [11], 4.1 nM | – | 0.79
E13 [11], 12.3 nM | – | 0.88
E13 [11], 37 nM | – | 0.816
E13 [11], 111.1 nM | – | 0.465
E13 [11], 333.3 nM | – | 0.22
E13 [11], 1000 nM | – | 0.203
E13 [11], 3000 nM | – | 0.221
E21 [5], 4.1 nM | 1.49 | –
E21 [5], 12.3 nM | 1.54 | –
E21 [5], 37 nM | 1.52 | –
E21 [5], 111.1 nM | 2.75 | –
E21 [5], 333.3 nM | 7.72 | –
E21 [5], 1000 nM | 7.67 | –
E21 [5], 3000 nM | 6.82 | –
E21 [12], 4.1 nM | – | 0.964
E21 [12], 12.3 nM | – | 0.942
E21 [12], 37 nM | – | 0.868
E21 [12], 111.1 nM | – | 0.707
E21 [12], 333.3 nM | – | 0.138
E21 [12], 1000 nM | – | 0.144
E21 [12], 3000 nM | – | 0.187
E28 [7], 4.1 nM | 0.755 | –
E28 [7], 12.3 nM | 0.838 | –
E28 [7], 37 nM | 1.05 | –
E28 [7], 111.1 nM | 2.06 | –
E28 [7], 333.3 nM | 3.8 | –
E28 [7], 1000 nM | 4.27 | –
E28 [7], 3000 nM | 4.73 | –
E28 [14], 4.1 nM | – | 1.01
E28 [14], 12.3 nM | – | 0.992
E28 [14], 37 nM | – | 0.943
E28 [14], 111.1 nM | – | 0.731
E28 [14], 333.3 nM | – | 0.444
E28 [14], 1000 nM | – | 0.288
E28 [14], 3000 nM | – | 0.426
E31 [2], 4.1 nM | 1.27 | –
E31 [2], 12.3 nM | 0.909 | –
E31 [2], 37 nM | 1.1 | –
E31 [2], 111.1 nM | 2.77 | –
E31 [2], 333.3 nM | 5.6 | –
E31 [2], 1000 nM | 5.55 | –
E31 [2], 3000 nM | 4.51 | –
E31 [9], 4.1 nM | – | 0.817
E31 [9], 12.3 nM | – | 0.859
E31 [9], 37 nM | – | 0.71
E31 [9], 111.1 nM | – | 0.417
E31 [9], 333.3 nM | – | 0.132
E31 [9], 1000 nM | – | 0.1
E31 [9], 3000 nM | – | 0.114
E34 [3], 4.1 nM | 0.931 | –
E34 [3], 12.3 nM | 0.785 | –
E34 [3], 37 nM | 1.36 | –
E34 [3], 111.1 nM | 2.23 | –
E34 [3], 333.3 nM | 3.56 | –
E34 [3], 1000 nM | 3.98 | –
E34 [3], 3000 nM | 6.31 | –
E34 [10], 4.1 nM | – | 0.922
E34 [10], 12.3 nM | – | 0.961
E34 [10], 37 nM | – | 0.917
E34 [10], 111.1 nM | – | 0.664
E34 [10], 333.3 nM | – | 0.432
E34 [10], 1000 nM | – | 0.403
E34 [10], 3000 nM | – | 0.384
E57 [1], 4.1 nM | 1.09 | –
E57 [1], 12.3 nM | 0.846 | –
E57 [1], 37 nM | 1.77 | –
E57 [1], 111.1 nM | 2.71 | –
E57 [1], 333.3 nM | 5.36 | –
E57 [1], 1000 nM | 5.62 | –
E57 [1], 3000 nM | 4.64 | –
E57 [8], 4.1 nM | – | 1
E57 [8], 12.3 nM | – | 1.06
E57 [8], 37 nM | – | 0.876
E57 [8], 111.1 nM | – | 0.784
E57 [8], 333.3 nM | – | 0.148
E57 [8], 1000 nM | – | 0.0727
E57 [8], 3000 nM | – | 0.092
FT3469 [6], 4.1 nM | 0.995 | –
FT3469 [6], 12.3 nM | 0.806 | –
FT3469 [6], 37 nM | 0.927 | –
FT3469 [6], 111.1 nM | 2.1 | –
FT3469 [6], 333.3 nM | 3.21 | –
FT3469 [6], 1000 nM | 3.43 | –
FT3469 [6], 3000 nM | 3.34 | –
FT3469 [13], 4.1 nM | – | 0.984
FT3469 [13], 12.3 nM | – | 1.02
FT3469 [13], 37 nM | – | 0.772
FT3469 [13], 111.1 nM | – | 0.663
FT3469 [13], 333.3 nM | – | 0.648
FT3469 [13], 1000 nM | – | 0.56
FT3469 [13], 3000 nM | – | 0.566
